Literature values, collected in patent US7445902B2, “Fluorescent nucleotide analogues” (GE Healthcare UK Limited, priority 2004, dated 2008).

Tested on: receptor-Gαs/Gαi fusion proteins
Conditions: binding to receptor-Gαs/Gαi fusion proteins in the expression systems employed

| Substance | fold lower affinity than GppNHp (relative to GppNHp) | fold lower affinity than GTPγS (relative to GTPγS) |
| --- | --- | --- |
| BODIPY-FL-guanosine 5′-[β,γ-imido]triphosphate [B-GppNHp] | 17-55 fold |  |
| BODIPY-FL-guanosine 5′-[γ-thio]triphosphate [B-GTPγS] |  | 1,100-5,600 fold |
